Test results from patent US12678501B2, “Modulating permeability of the blood cerebrospinal fluid barrier” (MEMORIAL SLOAN-KETTERING CANCER CENTER, priority 2015, dated 2026).

Assays:
MDA231-LeptoM cells = experiment: Leptomeningeal metastasis model, MDA231-LeptoM cells into cisterna magna, BLI; format: in vivo, mouse; conditions: vs vehicle; for tumor growth within the leptomeninges (bioluminescent imaging): 2,000 MDA LeptoM cells into cisterna magna
Protocol: (§1) FIG. 11A-11C. C3aR as a therapeutic target in leptomeningeal metastasis. (A) 2,000 MDA231-LeptoM cells were introduced into the cisterna magna on day 0. Mice were treated with 10 mg/kg C3aR agonist (Ag), 10 mg/kg antagonist (Ant) or vehicle (Veh) I.P. twice weekly, tumor cell growth was monitored by BLI. n=10 mice per group. ****p<0.0001 (B) Survival analysis of mice treated in (A). (C) 2,000 MDA231-LeptoM, PC9-LeptoM, HCC1954-LeptoM or LCC-LeptoM cells were introduced into the CSF on day 0 and treated with Veh or Ant as described in (A). n=10 mice per group. BLI on day 14 is illustrated. *p<0.05; **p<0.01; *** p<0.001.
In light of the cancer cell dependence on C3 for growth within the leptomeningeal space, as well as C3aR's importance in maintenance of CP barrier function, we elected to assay C3aR antagonist as well as agonists in models of leptomeningeal metastasis. First, 2,000 MDA LeptoM were injected into the cisterna magna of recipient mice. Next, treatment with either vehicle, C3aR agonist or antagonist was initiated. Tumor growth was followed with bioluminescent imaging FIG. 11A.
(§2) Cells corresponding to each of these models were inoculated into the leptomeningeal space of recipient mice on Day 0. Daily systemic treatment with C3aR antagonist SB290157 began on Day 1. Bioluminescent imaging to quantitate tumor cell growth is shown for each of the models, FIG. 11C. […] In this approach, maintenance of B-CSF-B integrity inhibits cancer cell survival by inhibiting cancer cell access to plasma components, including protein, growth factors and metabolic intermediates.

HCC1954-LeptoM cells = experiment: Leptomeningeal metastasis model, HCC1954-LeptoM cells, BLI; format: in vivo, mouse; conditions: systemic treatment from Day 1, BLI on day 14, vs vehicle
Protocol: as §1, §2

PC9-LeptoM cells = experiment: Leptomeningeal metastasis model, PC9-LeptoM cells, BLI; format: in vivo, mouse; conditions: systemic treatment from Day 1, BLI on day 14, vs vehicle
Protocol: as §1, §2

LLC-LeptoM cells = experiment: Leptomeningeal metastasis model, LLC-LeptoM cells, BLI; format: in vivo, mouse; conditions: systemic treatment from Day 1, BLI on day 14, vs vehicle
Protocol: as §1, §2

[1] = tested on: human choroid plexus epithelial cells (HuCPEpi); experiment: Trans-epithelial electrical resistance (TEER) in in vitro model of B-CSF-B; format: cell-based; conditions: HuCPEpithelial cells on laminin-coated transwells, after addition of recombinant C3a
From the text: (§3) FIG. 7A-7F. C3aR activation alters B-CSF-barrier integrity. (A) Immunofluorescence of mouse choroid plexus for C3aR (red) and the apically expressed SPAK (green). (B) Trans-epithelial resistance in response to C3a in an in vitro model of B-CSF-B employing human choroid plexus epithelial cells (HuCPEpi). (C) Conditioned medium from MDA231 Parental cells (green) supplemented with recombinant mouse C3a (open circles) or vehicle (closed circles) was used to treat the monolayer prior to TEER measurements. (D) Conditioned medium from MDA231 LeptoM cells was not treated with antibody (closed circle), or immunodepleted with anti-C3 (open circles) or IgG control (black squares) prior to TEER measurements. (E) Mice (C3aR^+/+ or ^−/−) were parenterally pretreated with recombinant mouse C3a or vehicle prior to intracardiac infusion of mixed fluorescently labeled dextrans. 30 minutes later, CSF and blood were sampled and analyzed by fluorimetry. In the bar graphs, for each dextran size, fluorescence in animals treated with rmC3a is represented by the bar on the right (vehicle represented by the bar on the left). (F) Mouse choroid plexus treated with C3a or vehicle for 2 hours prior to fixation and staining for ZO-1 and Claudin.
To address the hypothesis that C3aR might function similarly in the choroid plexus, we first established the presence of C3aR on choroid plexus epithelium (FIG. 7A). […]

C3aR = target: T1, C3aR (Mus musculus, UniProt O09047); experiment: Passage of fluorescently labeled dextrans from blood to CSF in vivo; conditions: dextrans of 40 kDa and smaller; CSF sampled 30 minutes after intracardiac dextran; C3aR-dependent (wild type vs knockout mice)
T1 construct: from tissue; host or cells: living mice (in vivo)
T1 sequence (O09047 1-477): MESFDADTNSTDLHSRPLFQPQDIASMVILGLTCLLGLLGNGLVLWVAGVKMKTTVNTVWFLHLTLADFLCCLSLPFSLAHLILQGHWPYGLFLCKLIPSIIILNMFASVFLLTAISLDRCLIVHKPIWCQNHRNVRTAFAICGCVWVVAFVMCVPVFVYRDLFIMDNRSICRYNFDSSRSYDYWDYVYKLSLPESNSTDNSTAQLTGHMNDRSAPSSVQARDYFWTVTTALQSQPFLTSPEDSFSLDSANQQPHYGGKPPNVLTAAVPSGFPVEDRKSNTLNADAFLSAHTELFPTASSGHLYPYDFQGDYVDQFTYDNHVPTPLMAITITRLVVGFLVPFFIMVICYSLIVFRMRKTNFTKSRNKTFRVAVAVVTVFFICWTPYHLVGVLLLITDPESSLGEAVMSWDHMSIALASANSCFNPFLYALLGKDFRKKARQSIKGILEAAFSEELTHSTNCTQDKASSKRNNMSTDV
From the text: as §3, with “(F) Mouse choroid plexus treated with C3a or vehicle for 2 hours prior to fixation and staining for ZO-1 and Claudin.” left out
(§4) The passage of larger molecules was assessed through the use of fluorescently labeled Dextran passage in vivo. […] Thirty minutes after this treatment, CSF was sampled by cisternal tap, and presence of the derivatized dextran was assayed by fluorescence. […]

[2] = tested on: choroid plexus epithelial cells; experiment: Tight junction staining (ZO-1, claudin immunofluorescence) of choroid plexus; conditions: mouse choroid plexus treated 2 hours prior to fixation
From the text: as §3, with “(F) Mouse choroid plexus treated with C3a or vehicle for 2 hours prior to fixation and staining for ZO-1 and Claudin.” left out
as §4

[3] = Amphiregulin ELISA in CSF and plasma after parenteral C3a; format: in vivo; conditions: mouse models, after parenteral administration
From the text: FIG. 10A-10D. C3 conditioned CSF by opening the blood-CSF-barrier. (A) Commercial dot-blot array was employed to measure proteins present in CSF of two patients without leptomeningeal metastasis, who later developed leptomeningeal metastasis. […] (B) LLC-LeptoM cells instilled into the cisterna magna of C3aR wild-type (^+/+) or knock-out (^−/−) syngenic mice. Tumor growth was monitored by BLI. (C) ELISA for amphiregulin of CSF from suspected of leptomeningeal metastasis. Final clinical diagnosis is indicated. (D) Mice were parenterally pretreated with recombinant mouse […] or vehicle (green) as described in FIG. 7E. Amphiregulin was measured by ELISA in CSF and plasma.
Leptomeningeal metastasis alters the composition of the CSF (FIG. 10A), including the growth factor amphiregulin (FIG. 10C). Cancer cell growth within the leptomeningeal space is improved in the presence of the C3aR in our models of leptomeningeal metastasis (FIG. 10B) after parenteral administration of C3a, serum amphiregulin is elevated within the CSF in mouse models.

passage of dextrans from blood to CSF (C3aR)	Molecule	tumor growth within the leptomeninges (bioluminescent imaging) (MDA231-LeptoM cells; 10 mg/kg I.P. twice weekly)	leptomeningeal tumor growth (BLI) (MDA231-LeptoM cells; MDA231 model, systemic treatment from Day 1, BLI on day 14)	survival (MDA231-LeptoM cells; MDA LeptoM model, 10 mg/kg I.P. twice weekly)	leptomeningeal tumor growth (BLI) (HCC1954-LeptoM cells)	leptomeningeal tumor growth (BLI) (PC9-LeptoM cells)	leptomeningeal tumor growth (BLI) (LLC-LeptoM cells)	resistance across the monolayer (TEER) [1]	tight junctions between choroid plexus epithelial cells (claudin immunofluorescence) [2]	amphiregulin within the CSF [3]
–	O=C(NC1CCN(C(=O)CCc2cccnc2)CC1)C(c1ccccc1)C1CCCCC1 (stereo not drawn) [C3aR agonist, α-cyclohexyl-N-[1-[1-oxo-3-(3-pyridinyl)propyl]-4-piperidinyl]-benzeneacetamide]	accelerated	–	–	–	–	–	–	–	–
–	N=C(N)NCCC[C@H](NC(=O)COCC(c1ccccc1)c1ccccc1)C(=O)O [SB290157, N2-[2-(2,2-diphenylethoxy)acetyl]-L-arginine, 2,2,2-trifluoroacetate]	slowed	less leptomeningeal tumor growth	survival benefit	less leptomeningeal tumor growth	less leptomeningeal tumor growth	less leptomeningeal tumor growth	–	–	–
increased	recombinant C3a: recombinant C3a, hydrolysis fragment of complement C3, ligand of the C3aR receptor	–	–	–	–	–	–	reduced	disorganization of tight junctions	elevated
